Values of other authors, collected in paper PMC5778071, “Development of matrix metalloproteinase-targeted probes for lung inflammation detection with positron emission tomography” (Scientific Reports, 2018).

Set-up: method as in PMID 25822732
Conditions: cited from earlier work

For `CC(C)C[C@H](CC(=O)NO)C(=O)N[C@@H](Cc1ccccc1)C(=O)N[C@@H](CCCCNC(=O)c1ccc([18F])cc1)C(N)=O` [^18F-FB-ML5], which “accumulation ratio of lung to liver” value is on record?
The value was less than 0.1.
